Laboratory results reported in ChEMBL document CHEMBL1156829 (Proc Natl Acad Sci U S A, 2008).
Values joined by “and” are separate entries in the source; they are usually repeats but may differ in a detail not shown here. Identical values can stand only once.

What was measured:
[1] = test system: Plasmodium falciparum; assay: NOVARTIS: Inhibition of Plasmodium falciparum 3D7 (drug-susceptible) proliferation in erythrocyte-based infection assay; assay type: functional, organism-based
[2] = test system: Plasmodium falciparum; assay: NOVARTIS: Inhibition of Plasmodium falciparum W2 (drug-resistant) proliferation in erythrocyte-based infection assay; assay type: functional, organism-based; conditions: read-out: EC50
[3] = NOVARTIS: Cytotoxicity against human hepatocellular carcinoma cell line (Huh7); assay type: toxicity, cell-based, Huh-7; conditions: Huh7 cells (hepatocellular carcinoma cell line)

SMILES	EC50 [1]	EC50 [2]	CC50 [3] [nM]	EC50 ([1]; Plasmodium falciparum, 3D7) [nM]	EC50 ([2]; Plasmodium falciparum, W2) [nM]
CCN1C(=Cc2sc3ccccc3[n+]2C)C=Cc2ccc(C)cc21	1650 nM	> 1420 nM	> 11800		
CCCC[n+]1c(C=C2C=Cc3ccccc3N2CC)sc2ccccc21	724 nM	694 nM	> 10000		
COc1cc(/C=C2\CC/C(=C\c3cc(OC)c(OC)c(OC)c3)C2=O)cc(OC)c1OC			873	458	457
OCCCNc1cc(-c2ccnc(Nc3cccc(Cl)c3)n2)ccn1			269	232	186
Cc1cc(Nc2cc3ccccc3cc2O)n2ncnc2n1			1750	1340	1290
CCOc1ccc(Nc2nc(N)c3ccccc3n2)cc1			2370	862	1580
Cc1ccc(Cl)cc1-n1c(SCc2ccccc2)nnc1C(Cc1ccccc1)NC(=O)C12CC3CC(CC(C3)C1)C2 (configuration not stated)			1130	> 1250	> 954
CC(C)c1cccc(C(C)C)c1NC(=O)N(Cc1ccccc1)C(C)c1nc2ccccc2c(=O)n1-c1ccc(Cl)cc1 (configuration not stated)			> 1460	985	1020
CCN(CC)CCN1C(=O)c2ccc3c4c(ccc(c24)C1=O)C(=O)N(CCN(CC)CC)C3=O			221	244	136
Cc1ccc(S(=O)(=O)N2CCN(C(=O)c3ccccc3)C2c2ccccc2)cc1 (configuration not stated)			10600	> 12500	6290
CCCCCN(C(=O)CCc1ccccc1)C(CC)c1nc2ccccc2c(=O)n1-c1ccc(Cl)cc1C (configuration not stated)			> 305	> 1000	1740
CCN1C(=Cc2sc3ccc(Cl)cc3[n+]2CC)C=Cc2cc(OC)ccc21	473 nM	602 nM	> 10000		
Cc1noc(C)c1S(=O)(=O)N(CC(C)C)C(C(=O)NC(CN1CCCC1)c1ccccc1)c1ccccc1 (configuration not stated)			2820	775	1660
Cc1cccc(OCC(O)CN2CCN(CC(=O)c3ccc(Br)cc3)CC2)c1 (configuration not stated)			214	> 1250	896
COc1cc(C(=O)N2C(C(=O)Nc3ccccc3F)CSC2c2ccc(C(C)(C)C)cc2)cc(OC)c1OC (configuration not stated)			> 2310	1040	1280
Cc1ccc(C(=O)Nc2ccc(-c3nc4ccc(NC(=O)c5ccc(C)cc5)cc4[nH]3)cc2)cc1			1890	1570	> 5780
COc1ccc(SC2CCN(C3CCOCC3)CC2)cc1			240	> 1470	358
O=C(Nc1cc(Cl)cc(Cl)c1)Nc1cccc(C(F)(F)F)c1			14900	13.8	> 12500
Cc1ccccc1N(CC(=O)NCC1CCCO1)C(=O)c1snc(C(N)=O)c1N (configuration not stated)			> 2400	> 706	> 1250
COc1ccc(Nc2nc3nonc3nc2NN=Cc2cc(Cl)ccc2O)cc1			> 3170	1780	1620
CC(=O)N(C)C1=C(N2CCOCC2)C(=O)c2ccccc2C1=O			590	254	288

SMILES	EC50 [1]	EC50 [2]	CC50 [3] [nM]	EC50 ([1]; Plasmodium falciparum, 3D7) [nM]	EC50 ([2]; Plasmodium falciparum, W2) [nM]
Nc1nc(N)c2cc(S(=O)(=O)N3CCCCC3)ccc2n1			2670	20.2	> 1250
Oc1ccc(C=NN=C(Nc2ccccn2)c2ccccn2)c(O)c1			> 245	> 1250	> 674
Cn1ncnc2c(=O)n(C)c(=O)nc1-2			199	> 12500	481
COc1cnc(-c2ccccn2)nc1NC(C)C			2500	712	1100
COc1ccc(CCN(C(=S)Nc2ccccc2)C2CC(=O)N(c3ccc(F)cc3)C2=O)cc1OC (configuration not stated)			> 1910	> 1740	1560
CCc1nc2ccc(NC(=O)c3ccncc3)cc2c(=O)n1Cc1cccc(OC)c1			> 570	1570	427
CC1=C(CO)C(=O)O[C@@H]([C@@H](C)[C@H]2CC[C@H]3[C@@H]4C[C@H]5O[C@]56[C@@H](O)C=CC(=O)[C@]6(C)C4CC[C@]23C)C1 (some centres not stated)			3630	4970	1680
CCCCc1ccc(C(=O)NCCCN(C(=O)Nc2ccc([N+](=O)[O-])cc2)c2ccccc2)cc1			2680	> 1250	1210
CC1CC(C)CC(C)C(O)C(C#N)=CC=CCC(C2CCCC2C(=O)O)OC(=O)CC(O)C(C)C1 (configuration not stated)			2850	43.7	> 1250
Cc1ccc(O)c(C(=O)c2c[nH]c(-c3nc4ccccc4[nH]3)c2)c1			5650	2880	2470
COC(=O)c1sc2nc(CN(C)Cc3nccs3)ccc2c1NC(=O)c1ccc(C)s1			> 2840	> 1330	1150
CCN(CC)Cc1ccc2c(NC(=O)c3ccc(C)s3)c(C(=O)OC)sc2n1			1240	1230	1190
Cc1oc2c(c1C(=O)NCc1cccnc1)C(=O)c1ccccc1C2=O			1910	1500	1750
FC(F)(F)c1cccc(Nc2nc3nonc3nc2Nc2ccc(Br)cc2)c1			7130	7620	5200
CC1=CC(=O)OC[C@]23C[C@H](O)C(C)=C[C@H]2O[C@@H]2C[C@@H](OC(=O)C=CC=CC(=O)OCC1)[C@@]3(C)[C@]21CO1	2.44 nM	1.77 nM	83.7		
C=CCN1C=CC(=Cc2sc3ccccc3[n+]2C)c2ccccc21	432 nM		> 9370		125
CCOC(=O)c1cnc2ccc(OC)cc2c1O	727 nM and 245 nM	721 nM	> 100000		1300
Cc1ccc(C=Cc2ccc(N(C)C)cc2)[n+](C)c1	397 nM	400 nM	> 60500		
CC1=C[C@H]2O[C@@H]3C[C@H]4OC(=O)C=CC=C[C@H]([C@@H](C)O)OCC[C@@H](C)[C@H](O)C(=O)OC[C@@]2(CC1)[C@]4(C)[C@@]31CO1	< 0.572 nM	< 0.572 nM	6.04		
COc1cccc2c1C(=O)c1c(O)c3c(c(O)c1C2=O)C[C@](O)(C(C)=O)C[C@@H]3O[C@H]1C[C@@H](N)[C@H](O)[C@H](C)O1			129	308	213
CN(C=Cc1sc2ccc3ccccc3c2[n+]1C)c1ccccc1	239 nM	153 nM	64300		

SMILES	EC50 [1]	EC50 [2]	CC50 [3] [nM]	EC50 ([1]; Plasmodium falciparum, 3D7) [nM]	EC50 ([2]; Plasmodium falciparum, W2) [nM]
O=C(NCCC1=CCCCC1)c1ccc2c(=O)n(-c3ccccc3)c(SCc3nc4ccccc4[nH]3)nc2c1			> 912	> 1250	1460
c1ccc(CSc2nnc3c(n2)[nH]c2ccccc23)cc1	> 1060 nM	> 748 nM	> 10000	1300	1320
CCCCCCC1CCC(O)(C(C)(O)C(=O)NC2C(=O)N3NCCCC3C(=O)N(O)C(COC)C(=O)NCC(=O)N3NCCCC3C(=O)N(O)C(C)C(=O)OC2C)OC1C (configuration not stated)			197	219	124
COc1ccc(CN2CCC(Sc3ncccn3)CC2)cc1			702	> 1440	950
CC[n+]1cc(C)ccc1C=Cc1ccc(N(C)C)cc1	195 nM	232 nM	15200		
c1ccc(CNc2nc(-c3ccccn3)nnc2-c2ccccc2)cc1			630	182	326
CN[C@H]1C[C@@H]2O[C@](C)([C@H]1O)n1c3ccccc3c3c4c(c5c6ccccc6n2c5c31)C(=O)NC4			32.3	55.4	52.1
CC(C)CC[n+]1ccccc1C=Cc1ccc(N(C)C)cc1	82.9 nM	150 nM	> 30000		
CC1=CC[C@@H](/C(C)=C/c2csc(C)n2)OC(=O)C[C@H](O)C(C)(C)C(=O)[C@H](C)[C@@H](O)[C@@H](C)CCC1			6.21	85.4	25.8
O=C(Nc1cccc(Cl)c1)Nc1cc(C(F)(F)F)cc(C(F)(F)F)c1			19500	3220	> 9990
CCN(CC)c1ccc(/C=C(/C#N)c2nc3ccccc3[nH]2)o1			> 333	> 1250	> 702
Cn1cc(/C=C/c2cc[n+](C)cc2)c2ccccc21	92.8 nM		> 8990		314
Nc1nc(N)c2cc(S(=O)(=O)N3CCOCC3)ccc2n1			5050	62.6	> 12500
O=C(Cc1cccnc1)N1CCC(Oc2ccncc2)CC1			104	626	141
Cc1ccccc1N=c1oc2ccc3ccccc3c2cc1-c1nc2ccccc2[nH]1			> 2100	> 997	> 1250
CC(C)CC(N)C(=O)NCCCNc1nsc2ccccc12 (configuration not stated)			15900	2820	> 12100
CC[C@H](C)C[C@H]1CC[C@](O)([C@](C)(O)C(=O)N[C@@H]2C(=O)N3NCCC[C@@H]3C(=O)N(O)[C@@H](C)C(=O)NCC(=O)N3NCCC[C@H]3C(=O)N(O)[C@H](C)C(=O)O[C@H]2C(C)C)O[C@@H]1C			465	438	567
CN(C)c1cc[n+](Cc2c(Cl)cccc2Cl)cc1			642	140	598
CC(=O)Nc1ccc2c(c1)C(=O)N(C(C(=O)NCc1ccccc1)C1CCCCC1)[C@@H](Cc1ccc(O)cc1)C(=O)N2 (some centres not stated)			659	807	555
CCC1CC2CCC(O2)C(C)C(=O)OC(C)CC2CCC(O2)C(C)C(=O)OC(CC)CC2CCC(O2)C(C)C(=O)OC(C)CC2CCC(O2)C(C)C(=O)O1 (configuration not stated)			356	162	228
COC(=O)c1ccc(C2C3=C(O)CC(c4ccc(C)cc4)CC3=Nc3ccccc3N2C(=O)c2cccs2)cc1 (configuration not stated)	328 nM and 88 nM	808 nM and 264 nM	> 100000		
